The values that follow come from patent US8231888B2, “Isoxazolines for controlling invertebrate pests” (priority 2005, dated 2012).

What all share (assay type): in vivo
The test system of test [1] is diamondback moth (Plutella xylostella). In words: Test A: control of diamondback moth on radish plant, foliar spray. As to conditions: sprayed at 250 and/or 50 ppm, 6 days, 25° C.; no asterisk (not limited to 250 ppm). The text has this: For evaluating control of diamondback moth (Plutella xylostella) the test unit consisted of a small open container with a 12-14-day-old radish plant inside. This was pre-infested with about 50 neonate larvae that were dispensed into the test unit via corn cob grits using a bazooka inoculator. The larvae moved onto the test plant after being dispensed into the test unit.
(§1) Test compounds were formulated using a solution containing 10% acetone, 90% water and 300 ppm X-77™ Spreader Lo-Foam Formula non-ionic surfactant containing alkylarylpolyoxyethylene, free fatty acids, glycols and isopropanol (Loveland Industries, Inc. Greeley, Colo., USA). The formulated compounds were applied in 1 mL of liquid through a SUJ2 atomizer nozzle with 1/8 JJ custom body (Spraying Systems Co. Wheaton, Ill., USA) positioned 1.27 cm (0.5 inches) above the top of each test unit. All experimental compounds in these tests were sprayed at 250 and/or 50 ppm, and the test was replicated three times. After spraying of the formulated test compound, each test unit was allowed to dry for 1 h and then a black, screened cap was placed on top. The test units were held for 6 days in a growth chamber at 25° C. and 70% relative humidity. Plant feeding damage was then visually assessed based on foliage consumed and a pest mortality rating was also counted and calculated for each test unit.

In test [2] the test system is fall armyworm (Spodoptera frugiperda). In words: Test B: control of fall armyworm on corn (maize) plant, foliar spray. To be noted: sprayed at 250 and/or 50 ppm; no asterisk (not limited to 250 ppm). As for the experimental part: as §1
For evaluating control of fall armyworm (Spodoptera frugiperda) the test unit consisted of a small open container with a 4-5-day-old corn (maize) plant inside. This was pre-infested (using a core sampler) with 10-15 1-day-old larvae on a piece of insect diet. Test compounds were formulated and sprayed at 250 and/or 50 ppm as described for Test A and replicated three times. After spraying, the test units were maintained in a growth chamber and then the control efficacy was rated for each test unit as described for Test A.

The subject of test [3] is western flower thrips (Frankliniella occidentalis). In words: Test D: control of western flower thrips on Soleil bean plant, contact and/or systemic. As to conditions: 6 days, 25° C. As to the method: as §1
For evaluating control of the western flower thrips (Frankliniella occidentalis) through contact and/or systemic means, the test unit consisted of a small open container with a 5-7 day old Soleil Bean plant inside. Test compounds were formulated and sprayed at 250 and/or 50 ppm, and the test was replicated three times as described for Test A. After spraying, the test units were allowed to dry for 1 hour and then 22-27 adult thrips were added to each unit and then a black, screened cap was placed on top. The test units were held for 6 days at 25° C. and 45-55% relative humidity. A mortality rating was assessed along with a plant damage rating for each test unit.

In test [4] the test system is cat flea (Ctenocephalides felis Bouche). In words: Test E: control of cat flea on orally dosed CD-1 mouse. As to conditions: 10 mg/kg oral, fleas applied 2 h after dosing, mortality 48 hours after flea application. As to the method: For evaluating control of the cat flea (Ctenocephalides felis Bouche), a CD-1® mouse (about 30 g, male, obtained from Charles River Laboratories, Wilmington, Mass.) was orally dosed with a test compound in an amount of 10 mg/kg solubilized in propylene glycol/glycerol formal (60:40). Two hours after oral administration of the test compound, approximately 8 to 16 adult fleas were applied to each mouse. The fleas were then evaluated for mortality 48 hours after flea application to the mouse.

Setting [5] is: sprayed at 250 and/or 50 ppm, no asterisk (not limited to 250 ppm).
[6] abbreviates: asterisk: observed only at 250 ppm.

As to `O=C(NCc1ccccn1)c1ccc(C2=NOC(c3cc(Cl)cc(Cl)c3)(C(F)(F)F)C2)c2ccccc12` (stereo not shown) [Compound 2], the “control efficacy (20% or less feeding damage or 80% or more mortality)” value in test [1], in test [2] and in test [3] (setting [5]) was “very good to excellent levels of control efficacy” each time. In addition, the flea mortality in test [4] is on record as ≥ 30%.
Take `O=C(NCCO)c1ccc(C2=NOC(c3cc(Cl)cc(Cl)c3)(C(F)(F)F)C2)c2ccccc12` (stereo not shown) [Compound 35]: the “control efficacy (20% or less feeding damage or 80% or more mortality)” value in test [1], in test [2] and in test [3] (setting [5]) was “very good to excellent levels of control efficacy” each time.
`O=C(N[C@H]1CCc2ccccc21)c1ccc(C2=NOC(c3cc(Cl)cc(Cl)c3)(C(F)(F)F)C2)c2ccccc12` (stereo partly shown) [Compound 39]: the “control efficacy (20% or less feeding damage or 80% or more mortality)” value in test [1], in test [2] and in test [3] (setting [6]) was “very good to excellent levels of control efficacy” throughout.
Consider `COCCNC(=O)c1ccc(C2=NOC(c3cc(Cl)cc(Cl)c3)(C(F)(F)F)C2)c2ccccc12` (stereo not shown) [Compound 41], for which the “control efficacy (20% or less feeding damage or 80% or more mortality)” value in test [1], in test [2] and in test [3] (setting [5]) was “very good to excellent levels of control efficacy” throughout.
Regarding `CCOC(=O)CNC(=O)c1ccc(C2=NOC(c3cc(Cl)cc(Cl)c3)(C(F)(F)F)C2)c2ccccc12` (stereo not shown) [Compound 42], the “control efficacy (20% or less feeding damage or 80% or more mortality)” value in test [1], in test [2] and in test [3] (setting [5]) was “very good to excellent levels of control efficacy” each time.
In the case of `O=C(NNc1ccccc1)c1ccc(C2=NOC(c3cc(Cl)cc(Cl)c3)(C(F)(F)F)C2)c2ccccc12` (stereo not shown) [Compound 46], the “control efficacy (20% or less feeding damage or 80% or more mortality)” value in test [1], in test [2] and in test [3] (setting [6]) was “very good to excellent levels of control efficacy” in each case.
Take `COC(=O)[C@@H](NC(=O)c1ccc(C2=NOC(c3cc(Cl)cc(Cl)c3)(C(F)(F)F)C2)c2ccccc12)C(C)C` (stereo partly shown) [Compound 49]: the “control efficacy (20% or less feeding damage or 80% or more mortality)” value in test [1], in test [2] and in test [3] (setting [5]) was “very good to excellent levels of control efficacy” in each case.
In the case of `O=C(CNC(=O)c1ccc(C2=NOC(c3cc(Cl)cc(Cl)c3)(C(F)(F)F)C2)c2ccccc12)NCC(F)(F)F` (stereo not shown) [Compound 51], the “control efficacy (20% or less feeding damage or 80% or more mortality)” value in test [1], in test [2] and in test [3] (setting [5]) was “very good to excellent levels of control efficacy” in each case.
For the molecule `O=C(NCc1ccccn1)c1ccc(C2=NOC(c3cc(Cl)cc(Cl)c3)(C(F)(F)F)C2)c2ccncc12` (stereo not shown) [Compound 104, 5-[5-(3,5-dichlorophenyl)-4,5-dihydro-5-(trifluoromethyl)-3-isoxazolyl]-N-(2-pyridinylmethyl)-8-isoquinolinecarboxamide], the “control efficacy (20% or less feeding damage or 80% or more mortality)” value in test [1], in test [2] and in test [3] (setting [5]) was “very good to excellent levels of control efficacy” each time.
